Values quoted from earlier work, collected in US8071770B2, “Spirohydantoin aryl CGRP receptor antagonists” (Merck Sharp & Dohme Corp., priority 2005, dated 2011).
Ends that are not written are not given here.

Columns and labels:
facial blood flow [1] = details: marmoset, electrical stimulation of the trigeminal ganglion (Doods et al. 2000)
middle meningeal artery = details: rats, electrical stimulation of the dura mater, prior administration (Williamson et al. 1997)
facial blood flow [2] = details: rat, trigeminal ganglion stimulation (Escott et al. 1995)

Question: Which “effect on increase in facial blood flow” value (facial blood flow [1]) does the source give for `NCCCC[C@H](NC(=O)[C@@H](Cc1cc(Br)c(O)c(Br)c1)NC(=O)N1CCC(N2Cc3ccccc3NC2=O)CC1)C(=O)N1CCN(c2ccncc2)CC1` [BIBN4096BS] here?
Answer: blocked

Question: For “CGRP (8-37): a fragment of CGRP that lacks seven N-terminal amino acid residues; a peptide CGRP antagonist (VTHRLAGLLSRSGGVVKNNFVPTNVGSKAF; ends and bridges not checked; UniProt P06881 90-119, looked up, fragment)”, which “effect on increase of middle meningeal artery diameter” value (middle meningeal artery) is on record?
Answer: blocked

Question: What about the “effect on increase of facial blood flow” value (facial blood flow [2]) of the same compound?
Answer: inhibited
